The supplement of paper PMC6965134
± gives the standard deviation of the averaged measurements. Each block holds one compound with its values, some of them ahead of it.

Assay: TIMS collisional cross section (CCS, N2) of the lipid ion; higher = larger ion cross section
Conditions: ionization mode: negative, one isomer drawn
Method: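 Lipid extracts of human plasma (NIST SRM 1950), mouse liver or HeLa cells were separated by nanoflow C18 LC (30 min gradient) and analysed by TIMS-PASEF on a timsTOF Pro. Ion mobility was calibrated with the Agilent tuning mix (negative mode ions) and converted to collisional cross sections (Mason–Schamp, N2).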

[1] = sample type: Mouse Liver, ion (formula + adduct): [C39H72NO8P-H] 1-
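Further: lipids from MTBE extraction, five replicate injections per sample, 100 ms TIMS ramp spanning 0.6–1.95 Vs/cm², lipid identity assigned from PASEF MS/MS spectra.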

SMILES: CC/C=C\C/C=C\C/C=C\C/C=C\C/C=C\C/C=C\CCC(=O)OC[C@H](COP(=O)([O-])OCC[N+](C)(C)C)OC(=O)CC/C=C\C/C=C\C/C=C\C/C=C\C/C=C\C/C=C\CC [PC 22:6_22:6]
TIMS collisional cross section (sample type: Mouse Liver, ion (formula + adduct): [C52H80NO8P+HCOO] 1-): 304.9 Å²

SMILES: CC/C=C\C/C=C\C/C=C\C/C=C\C/C=C\CCCC(=O)O[C@H](COCCCCCCCCCCCCCCCC)COP(=O)([O-])OCC[N+](C)(C)C [PC O- 16:0@_20:5]
TIMS collisional cross section (sample type: Human plasma, ion (formula + adduct): [C44H80NO7P+AcO] 1-): 298.5 Å²

SMILES: CCCCCC/C=C/CCCCCCCC(=O)OC[C@@H](O)COP(=O)([O-])OCC[N+](C)(C)C [LPC 16:1_0:0]
TIMS collisional cross section (sample type: Human plasma, ion (formula + adduct): [C24H48NO7P+HCOO] 1-): 236.14 ± 0.68 Å²
TIMS collisional cross section (sample type: Human plasma, ion (formula + adduct): [C24H48NO7P-CH3] 1-): 237.8 Å²
TIMS collisional cross section (sample type: Mouse Liver, ion (formula + adduct): [C24H48NO7P+HCOO] 1-): 235 ± 0.42 Å²

SMILES: CC/C=C\C/C=C\C/C=C\C/C=C\C/C=C\CCCCCC(=O)OC(COCCCCCCCCCCCCCCCC)COP(=O)([O-])OCC[N+](C)(C)C (stereo not drawn) [PC O- 16:0@_22:5]
TIMS collisional cross section (sample type: Human plasma, ion (formula + adduct): [C46H84NO7P-CH3] 1-): 281.3 Å²
TIMS collisional cross section (sample type: Mouse Liver, ion (formula + adduct): [C46H84NO7P-CH3] 1-): 280.2 Å²

SMILES: CCCCCCCCCCCCCCCCCCC(=O)OC[C@H](COP(=O)([O-])OCC[N+](C)(C)C)OC(C)=O [PC 19:0@_2:0]
TIMS collisional cross section (sample type: Human plasma, ion (formula + adduct): [C29H58NO8P-H] 1-): 244.4 Å²

SMILES: CC/C=C\C/C=C\C/C=C\C/C=C\C/C=C\C/C=C\CCC(=O)O[C@H](COC(=O)CCCCCCCCCCCCCCC)COP(=O)([O-])OCC[N+](C)(C)C [PC 16:0_22:6]
TIMS collisional cross section (sample type: Human plasma, ion (formula + adduct): [C46H80NO8P+HCOO] 1-): 297.8 Å²
TIMS collisional cross section (sample type: Mouse Liver, ion (formula + adduct): [C46H80NO8P+HCOO] 1-): 297.75 ± 0.78 Å²

SMILES: CCCCCCCCCCCCCCCCCC(=O)OC[C@H](COP(=O)(O)OC[C@H](N)C(=O)O)OC(=O)CCCCCCCCCCCCCC [PS 18:0_15:0@]
TIMS collisional cross section (sample type: Human plasma, ion (formula + adduct): [C39H76NO10P+OAcO] 1-): 293.3 Å²

SMILES: CCCCC/C=C\C/C=C\C/C=C\C/C=C\CCCCCC(=O)OC[C@@H](O)COP(=O)(O)OCCN [LPE 22:4_0:0]
TIMS collisional cross section (sample type: Human plasma, ion (formula + adduct): [C27H48NO7P-H] 1-): 223.5 Å²
TIMS collisional cross section (sample type: Mouse Liver, ion (formula + adduct): [C27H48NO7P-H] 1-): 222.9 Å²

SMILES: CCCCC/C=C\C/C=C\C/C=C\CCCCCCC(=O)O[C@H](COC(=O)CCCC/C=C\C/C=C\C/C=C\CCCCC)COP(=O)([O-])OCC[N+](C)(C)C [PC 18:3_20:3]
TIMS collisional cross section (sample type: Human plasma, ion (formula + adduct): [C46H80NO8P+AcO] 1-): 300.6 Å²

SMILES: CCCCCCCCCCCCCCCCCC(=O)OC[C@@H](O)COP(=O)(O)OC[C@H](N)C(=O)O [LPS 18:0_0:0]
TIMS collisional cross section (sample type: Mouse Liver, ion (formula + adduct): [C24H48NO9P-H] 1-): 227.7 Å²

SMILES: CCCCCCCC/C=C\CCCCCCCCCC(=O)O[C@H](COC(=O)CCCCCCCCCCCCCCCCC)COP(=O)([O-])OCC[N+](C)(C)C [PC 18:0_20:1]
TIMS collisional cross section (sample type: Mouse Liver, ion (formula + adduct): [C46H90NO8P+HCOO] 1-): 302.3 Å²

SMILES: CCCCCC/C=C\CCCCCCCC(=O)OC[C@H](COP(=O)([O-])OCC[N+](C)(C)C)OC(=O)CCCCCCCCCCCCC/C=C\CCCCCCCC [PC 16:1@_24:1]
TIMS collisional cross section (sample type: Mouse Liver, ion (formula + adduct): [C48H92NO8P-CH3] 1-): 290.9 Å²

SMILES: CCCCCC/C=C\CCCCCCCCCC(=O)O[C@H](COC(=O)CCCCCCCCCCCCC)COP(=O)([O-])OCC[N+](C)(C)C [PC 14:0@_18:1]
TIMS collisional cross section (sample type: Human plasma, ion (formula + adduct): [C40H78NO8P+HCOO] 1-): 286 Å²

SMILES: CCCCC/C=C\C/C=C\C/C=C\C/C=C\CCCC(=O)OC[C@H](COP(=O)(O)OC[C@@H](O)CO)OC(=O)CCCCCCC/C=C\C/C=C\CCCCC [PG 20:4_18:2]
TIMS collisional cross section (sample type: Mouse Liver, ion (formula + adduct): [C44H75O10P-H] 1-): 284.1 Å²

SMILES: CCCCCCCCCCCCCCCC(=O)O[C@H](COC(=O)CCCCCCCCCCCCCC)COP(=O)([O-])OCC[N+](C)(C)C [PC 15:0_16:0]
TIMS collisional cross section (sample type: Human plasma, ion (formula + adduct): [C39H78NO8P-H] 1-): 269.8 Å²

SMILES: CCCCCC/C=C\CCCCCCCC(=O)OC[C@H](COP(=O)(O)OC1C(O)C(O)C(O)[C@@H](O)C1O)OC(=O)CCCCCCCCCCCCCCC (stereo partly drawn) [PI 16:1_16:0@]
TIMS collisional cross section (sample type: Human plasma, ion (formula + adduct): [C41H77O13P-H] 1-): 282.6 Å²

SMILES: CCCCCCCCCCCCCCCCCCCC(=O)OC[C@@H](O)COP(=O)([O-])OCC[N+](C)(C)C [LPC 20:0_0:0]
TIMS collisional cross section (sample type: Human plasma, ion (formula + adduct): [C28H58NO7P+HCOO] 1-): 253 Å²

SMILES: CCCCCCCC/C=C\CCCCCCCC(=O)OC[C@H](COP(=O)([O-])OCC[N+](C)(C)C)OC(=O)CCCCCCCCCCCCCCCCCC [PC 18:1_19:0]
TIMS collisional cross section (sample type: Mouse Liver, ion (formula + adduct): [C45H88NO8P+HCOO] 1-): 299.5 Å²

SMILES: CCCCCCCCCCCCCCCCCC(=O)OC[C@@H](O)COP(=O)(O)OCCN [LPE 18:0_0:0]
TIMS collisional cross section (sample type: Human plasma, ion (formula + adduct): [C23H48NO7P-CH3] 1-): 214.1 Å²
TIMS collisional cross section (sample type: Human plasma, ion (formula + adduct): [C23H48NO7P-H] 1-): 218.1 Å²
TIMS collisional cross section (sample type: Mouse Liver, ion (formula + adduct): [C23H48NO7P-H] 1-): 217.5 ± 0.6 Å²

SMILES: CCCCC/C=C\C/C=C\C/C=C\CCCCCCC(=O)OC[C@@H](O)COP(=O)(O)OC1[C@H](O)[C@H](O)C(O)[C@H](O)[C@H]1O (stereo partly drawn) [LPI 20:3_0:0]
TIMS collisional cross section (sample type: Human plasma, ion (formula + adduct): [C29H51O12P-H] 1-): 240.4 Å²

SMILES: CC/C=C\C/C=C\C/C=C\C/C=C\C/C=C\C/C=C\CCC(=O)OC[C@@H](O)COP(=O)(O)OCCN [LPE 22:6_0:0]
TIMS collisional cross section (sample type: Human plasma, ion (formula + adduct): [C27H44NO7P-H] 1-): 222.4 Å²

Further lines, results first:

TIMS collisional cross section (sample type: Mouse Liver, ion (formula + adduct): [C40H74NO8P-H] 1-): 267.7 Å²
SMILES: CCCCC/C=C\C/C=C\CCCCCCCC(=O)O[C@H](COC(=O)CCCCCCC/C=C\CCCCCCC)COP(=O)(O)OCCN [PE 17:1_18:2]

TIMS collisional cross section (sample type: Human plasma, ion (formula + adduct): [C47H83O13P-H] 1-): 298.1 Å²
SMILES: CCCCC/C=C\C/C=C\C/C=C\C/C=C\CCCC(=O)O[C@H](COC(=O)CCCCCCCCCCCCCCCCC)COP(=O)(O)OC1C(O)C(O)C(O)[C@@H](O)C1O (stereo partly drawn) [PI 18:0_20:4@]

TIMS collisional cross section (sample type: Human plasma, ion (formula + adduct): [C41H74NO7P-H] 1-): 270.1 Å²
TIMS collisional cross section (sample type: Mouse Liver, ion (formula + adduct): [C41H74NO7P-H] 1-): 270.1 Å²
SMILES: CCCCC/C=C\C/C=C\C/C=C\C/C=C\CCCC(=O)O[C@H](CO/C=C\CCCCCCCCCCCCCC)COP(=O)(O)OCCN [PE P- 16:0_20:4]

TIMS collisional cross section (sample type: Human plasma, ion (formula + adduct): [C34H62O5-H] 1-): 244.7 Å²
SMILES: CCCCC/C=C\C/C=C\CCCCCCCC(=O)O[C@@H](CO)COC(=O)CCCCCCCCCCCC [DG 13:0@_18:2_0:0]

TIMS collisional cross section (sample type: Mouse Liver, ion (formula + adduct): [C39H70NO8P-H] 1-): 263.7 Å²
SMILES: CCCCC/C=C\C/C=C\C/C=C\C/C=C\CCCC(=O)OC[C@H](COP(=O)(O)OCCN)OC(=O)CCCCCCCCCCCCC [PE 20:4_14:0]

TIMS collisional cross section (sample type: Mouse Liver, ion (formula + adduct): [C45H81O13P-H] 1-): 293.1 Å²
SMILES: CCCCC/C=C\C/C=C\C/C=C\CCCCCCC(=O)OC[C@H](COP(=O)(O)OC1[C@H](O)[C@H](O)C(O)[C@H](O)[C@H]1O)OC(=O)CCCCCCCCCCCCCCC (stereo partly drawn) [PI 20:3_16:0@]

TIMS collisional cross section (sample type: Human plasma, ion (formula + adduct): [C39H72NO8P-H] 1-): 264.3 Å²
TIMS collisional cross section [1]: 264.3 Å²
SMILES: CCCCC/C=C\C/C=C\CCCCCCCC(=O)OC[C@H](COP(=O)(O)OCCN)OC(=O)CCCCCCC/C=C\CCCCCC [PE 18:2_16:1]

TIMS collisional cross section (sample type: Mouse Liver, ion (formula + adduct): [C45H84NO8P-H] 1-): 284.1 Å²
SMILES: CCCCC/C=C\C/C=C\CCCCCCCCCCCC(=O)O[C@H](COC(=O)CCCCCCC/C=C\CCCCCCCC)COP(=O)(O)OCCN [PE 18:1_22:2]

TIMS collisional cross section (sample type: Human plasma, ion (formula + adduct): [C43H74NO7P-H] 1-): 274 Å²
TIMS collisional cross section (sample type: Mouse Liver, ion (formula + adduct): [C43H74NO7P-H] 1-): 274.6 Å²
SMILES: CC/C=C\C/C=C\C/C=C\C/C=C\C/C=C\C/C=C\CCC(=O)O[C@H](CO/C=C\CCCCCCCCCCCCCC)COP(=O)(O)OCCN [PE P- 16:0@_22:6]

TIMS collisional cross section (sample type: Mouse Liver, ion (formula + adduct): [C40H77O10P-H] 1-): 275.7 Å²
SMILES: CCCCCCCCC=CCCCCCCCC(=O)OC(COC(=O)CCCCCCCCCCCCCCC)COP(=O)(O)OCC(O)CO (stereo not drawn) [PG 16:0_18:1]

TIMS collisional cross section (sample type: Mouse Liver, ion (formula + adduct): [C40H76NO8P-H] 1-): 269.4 Å²
SMILES: CCCCC/C=C\C/C=C\CCCCCCCC(=O)O[C@H](COC(=O)CCCCCCCCCCCCCCCC)COP(=O)(O)OCCN [PE 17:0_18:2]

TIMS collisional cross section [1]: 264.9 Å²
SMILES: CC/C=C\C/C=C\C/C=C\CCCCCCCC(=O)O[C@H](COC(=O)CCCCCCCCCCCCCCC)COP(=O)(O)OCCN [PE 16:0_18:3]
